According to ChEMBL document CHEMBL1155023, “C-geranylated chalcones from the stems of Angelica keiskei with superoxide-scavenging activity” (J Nat Prod, 2008):

Assay: Superoxide-scavenging activity assessed as inhibition of formation of WST1 formazan
`Oc1ccc(/C=C/c2cc(O)cc(O)c2)cc1` [RESVERATROL] gave an IC50 of 5300 nM. With `O=C(/C=C/c1ccc(O)cc1)c1ccc(O)cc1O` [ISOLIQUIRITIGENIN] the IC50 was 15000 nM. For `CC(C)=CCC/C(C)=C/CC/C(C)=C/CO` [FARNESOL], the IC50 was > 40000 nM. Molecule `C=C(C)C(O)CC/C(C)=C/Cc1c(O)ccc(C(=O)/C=C/c2ccc(O)cc2)c1O` (centres undefined) [XANTHOANGELOL B] has an IC50 of 920 nM. With `CC(C)(O)/C=C/CC(C)(O)[C@H]1Oc2ccc(C(=O)/C=C/c3ccc(O)cc3)c(O)c2[C@@H]1O` (some centres undefined) [XANTHOKEISMINS B] the IC50 was 690 nM. `C/C(=C\Cc1c(O)ccc(C(=O)/C=C/c2ccc(O)cc2)c1O)C/C=C/C(C)(C)O` [XANTHOKEISMINS A] showed an IC50 of 510 nM. With `O=C1O[C@H]([C@@H](O)CO)C(O)=C1O` [ASCORBIC ACID] the IC50 was > 40000 nM. In the case of `CC(C)=CCC/C(C)=C/Cc1c(O)ccc(C(=O)/C=C/c2ccc(O)cc2)c1O` [XANTHOANGELOL], the IC50 is reported as > 40000 nM. `C=C(C)C(O)CCC(C)(O)[C@H]1Oc2ccc(C(=O)/C=C/c3ccc(O)cc3)c(O)c2[C@@H]1O` (relative stereo) [XANTHOKEISMINS C] gave an IC50 of 1100 nM.
